Among the data in ChEMBL document CHEMBL5321224, “Antimicrobial peptides: Structure, mechanism, and modification” (2023) are MIC and LD values, retold here.

Calls of active or inactive are those of the source. The rule behind the calls is not given here. Non-standard residues stand in square brackets, D forms with d. Residues, ends and D or L forms follow the SMILES beside them. βAla = NCCC(=O)O

Format in all cases: functional
The subject of experiment [1] is Pseudomonas aeruginosa. Put plainly: Antimicrobial activity against Pseudomonas aeruginosa assessed as reduction of microbial growth.
In experiment [2] the test system is Staphylococcus aureus. Put plainly: Antimicrobial activity against Staphylococcus aureus assessed as reduction of microbial growth.
The subject of experiment [3] is Escherichia coli. Put plainly: Antimicrobial activity against Escherichia coli assessed as reduction of microbial growth.
Experiment [4] has as its system Escherichia coli. Put plainly: Antimicrobial activity against Escherichia coli assessed as reduction of microbial growth incubated for 18 to 24 hrs by microdilution method. To be noted: time 18-24 hrs. A general note: In broth dilution the organism is exposed to a series of concentrations in liquid medium.
Experiment [5] deals with Staphylococcus aureus. Put plainly: Antimicrobial activity against Staphylococcus aureus assessed as reduction of microbial growth incubated for 18 to 24 hrs by microdilution method. Conditions: time 18-24 hrs.
For experiment [6], the system named is Pseudomonas aeruginosa. Put plainly: Antimicrobial activity against Pseudomonas aeruginosa assessed as reduction of microbial growth incubated for 18 to 24 hrs by microdilution method. To be noted: time 18-24 hrs.
Experiment [7] concerns Escherichia coli. Put plainly: Antimicrobial activity against Escherichia coli.
For experiment [8], the system named is Staphylococcus aureus. Put plainly: Antimicrobial activity against Staphylococcus aureus.
The test system of experiment [9] is Pseudomonas aeruginosa. Briefly: Antimicrobial activity against Pseudomonas aeruginosa.
Experiment [10] has as its system Pseudomonas aeruginosa. Put plainly: Antimicrobial activity against Pseudomonas aeruginosa assessed as reduction of microbial growth incubated for 6 to 9 hr by macrodilution method. Conditions: time 6-9 hrs.
The subject of experiment [11] is Escherichia coli. Put plainly: Antimicrobial activity against Escherichia coli assessed as reduction of microbial growth incubated for 6 to 9 hr by macrodilution method. To be noted: time 6-9 hrs.
Experiment [12] relates to Staphylococcus aureus. Briefly: Antimicrobial activity against Staphylococcus aureus assessed as reduction of microbial growth incubated for 6 to 9 hr by macrodilution method. Conditions: time 6-9 hrs.
In experiment [13] the test system is Pseudomonas aeruginosa. Put plainly: Antimicrobial activity against Pseudomonas aeruginosa assessed as reduction of microbial growth incubated overnight.
Experiment [14] relates to Escherichia coli. Briefly: Antimicrobial activity against Escherichia coli assessed as reduction of microbial growth incubated overnight.
The test system of experiment [15] is Staphylococcus aureus. Put plainly: Antimicrobial activity against Staphylococcus aureus assessed as reduction of microbial growth incubated overnight.

Consider H-FLHSAKKFGKAFVGEIMNS-OH, for which the MIC entry with Pseudomonas aeruginosa [1] and with Staphylococcus aureus [2] was “inactive” in each case. Further, in the experiment with Escherichia coli [3], the MIC amounted to 200 µg/mL.
“H-GIGKFLHSAKKFGKAFVGEIMNS-OH [MAGAININ 2]”: the MIC result in the experiment on Pseudomonas aeruginosa [1] and in the experiment with Staphylococcus aureus [2] was “inactive” in each case. In addition, the minimal inhibitory concentration (MIC) in the experiment on Escherichia coli [4] was 50 µg/mL; in the experiment with Staphylococcus aureus [5], at least 100 µg/mL; in the experiment on Pseudomonas aeruginosa [6], 50 µg/mL; with Escherichia coli [3], 1 µg/mL.
In the case of H-KWKLFKKIGIGAVLKVLK-OH, the LD with Escherichia coli [7] was 0.5 µM; in the experiment on Staphylococcus aureus [8], 7 µM; in the experiment with Pseudomonas aeruginosa [9] it was 3 µM.
Take `CC[C@H](C)[C@H](NC(=O)CNC(=O)CCN)C(=O)NCC(=O)N[C@@H](CCCCN)C(=O)N[C@@H](Cc1ccccc1)C(=O)N[C@@H](CC(C)C)C(=O)N[C@@H](Cc1c[nH]cn1)C(=O)N[C@@H](C)C(=O)N[C@@H](C)C(=O)N[C@@H](CCCCN)C(=O)N[C@@H](CCCCN)C(=O)N[C@@H](Cc1ccccc1)C(=O)N[C@@H](C)C(=O)N[C@@H](CCCCN)C(=O)N[C@@H](C)C(=O)N[C@@H](Cc1ccccc1)C(=O)N[C@H](C(=O)N[C@@H](C)C(=O)N[C@@H](CCC(=O)O)C(=O)N[C@H](C(=O)N[C@@H](CCSC)C(=O)N[C@@H](CC(N)=O)C(=O)N[C@@H](CO)C(N)=O)[C@@H](C)CC)C(C)C` (H-[βAla]GIGKFLHAAKKFAKAFVAEIMNS-NH2): the MIC in the experiment with Pseudomonas aeruginosa [10] stood at 50 µg/mL; in the experiment with Escherichia coli [11], 5 µg/mL; in the experiment with Staphylococcus aureus [12] it was 5 µg/mL.
H-KWKLFKKGIGAVLKV-OH: the values for the LD with Escherichia coli [7], with Staphylococcus aureus [8] and in the experiment on Pseudomonas aeruginosa [9] were 4 µM, 29 µM and 15 µM, respectively.
Take H-GIGKFLHSAKKFGKAFVGEIMNSKKKKKKKKKK-OH: the minimum inhibitory concentration (MIC) in the experiment on Escherichia coli [4] is 50 µg/mL; in the experiment with Staphylococcus aureus [5] it was 3.1 µg/mL; in the experiment with Pseudomonas aeruginosa [6], 3.1 µg/mL.
In the case of `CC[C@H](C)[C@H](NC(=O)CNC(=O)[C@@H]1CCCN1C(=O)CNC(=O)[C@H](C)NC(=O)[C@H](CCCCN)NC(=O)[C@@H](NC(=O)[C@@H](NC(=O)CNC(=O)[C@H](CC(=O)O)NC(=O)[C@H](CCCNC(=N)N)NC(=O)[C@@H](NC(=O)[C@H](CC(N)=O)NC(=O)[C@H](CCC(N)=O)NC(=O)CNC(=O)[C@@H](NC(=O)[C@H](CCCCN)NC(=O)[C@H](CCC(=O)O)NC(=O)[C@@H](NC(=O)[C@H](CCCCN)NC(=O)[C@H](CCCCN)NC(=O)[C@H](Cc1ccccc1)NC(=O)[C@H](CC(C)C)NC(=O)[C@H](CCCCN)NC(=O)[C@H](Cc1c[nH]c2ccccc12)NC(=O)[C@@H](N)CCCCN)[C@@H](C)CC)C(C)C)[C@@H](C)CC)[C@@H](C)CC)[C@@H](C)CC)C(=O)NCC(=O)N[C@@H](C)C(=O)N[C@H](C(=O)N[C@@H](CC(C)C)C(=O)N[C@@H](CCCCN)C(=O)N[C@H](C(=O)N[C@@H](CC(C)C)C(=O)N[C@H](C(=O)N[C@H](C(=O)NCC(=O)N[C@@H](CC(C)C)C(=O)O)[C@@H](C)O)[C@@H](C)O)C(C)C)C(C)C`, the LD in the experiment on Pseudomonas aeruginosa [13] is 1 µM; with Escherichia coli [14] it was 0.3 µM; with Staphylococcus aureus [15], 6 µM.
H-KWKLFKKVLKVLTTG-OH: the LD with Escherichia coli [7] turned out to be 0.5 µM; in the experiment on Staphylococcus aureus [8], 8 µM; in the experiment with Pseudomonas aeruginosa [9] it was 2 µM.
H-GIGKFLHSAKKFGKAFVGEIMNS-NH2: the figures for the MIC in the experiment on Pseudomonas aeruginosa [1], with Staphylococcus aureus [2] and with Escherichia coli [3] were 256 µg/mL, over 256 µg/mL and 128 µg/mL, respectively.
For the molecule H-KWKLFKKIGAVLKVL-OH, the LD in the experiment with Escherichia coli [7] amounted to 1 µM; in the experiment with Staphylococcus aureus [8], 2 µM; in the experiment with Pseudomonas aeruginosa [9] it was 4 µM.
With `CC[C@@H](C)[C@H](NC(=O)[C@@H](NC(=O)CNC(=O)[C@H](CC(=O)O)NC(=O)[C@H](CCCNC(=N)N)NC(=O)[C@@H](NC(=O)[C@H](CC(N)=O)NC(=O)[C@H](CCC(N)=O)NC(=O)CNC(=O)[C@@H](NC(=O)[C@H](CCCCN)NC(=O)[C@H](CCC(=O)O)NC(=O)[C@@H](NC(=O)[C@H](CCCCN)NC(=O)[C@H](CCCCN)NC(=O)[C@H](Cc1ccccc1)NC(=O)[C@H](CC(C)C)NC(=O)[C@H](CCCCN)NC(=O)[C@H](Cc1c[nH]c2ccccc12)NC(=O)[C@@H](N)CCCCN)[C@@H](C)CC)C(C)C)[C@@H](C)CC)[C@@H](C)CC)C(=O)N[C@@H](CCCCN)C(=O)N[C@@H](C)C(=O)NCC(=O)N1CCC[C@H]1C(=O)N[C@@H](C)C(=O)N[C@H](C(=O)N[C@@H](C)C(=O)N[C@H](C(=O)N[C@H](C(=O)NCC(=O)N[C@@H](CCC(N)=O)C(=O)N[C@@H](C)C(=O)N[C@H](C(=O)N[C@@H](CCC(N)=O)C(=O)N[C@H](C(=O)N[C@@H](C)C(=O)N[C@@H](CCCCN)C(=O)O)[C@@H](C)CC)[C@@H](C)O)C(C)C)C(C)C)C(C)C`, the LD with Pseudomonas aeruginosa [13] is 2 µM; in the experiment with Escherichia coli [14], 0.2 µM; with Staphylococcus aureus [15], over 200 µM.
Ac-GIGKFLHAAKKFAKAFVAEIMNS-NH2: the MIC in the experiment with Pseudomonas aeruginosa [10] was over 100 µg/mL; in the experiment on Escherichia coli [11], 25 µg/mL; with Staphylococcus aureus [12] it was 25 µg/mL.
As for H-KFLHSAKKFGKAFVGEIMNS-OH, the MIC result with Pseudomonas aeruginosa [1] and with Staphylococcus aureus [2] was “inactive” each time. The MIC with Escherichia coli [3] came out at 20 µg/mL.
Turning to `CC[C@H](C)[C@H](NC(=O)CN)C(=O)NCC(=O)N[C@@H](C)C(=O)N[C@H](C(=O)N[C@@H](CC(C)C)C(=O)N[C@@H](CCCCN)C(=O)N[C@H](C(=O)N[C@@H](CC(C)C)C(=O)N[C@H](C(=O)N[C@H](C(=O)NCC(=O)N[C@@H](CC(C)C)C(=O)N[C@@H](CCCCN)C(=O)N[C@@H](Cc1c[nH]c2ccccc12)C(=O)N[C@@H](CCCCN)C(=O)N[C@@H](CC(C)C)C(=O)N[C@@H](Cc1ccccc1)C(=O)N[C@@H](CCCCN)C(=O)N[C@@H](CCCCN)C(=O)N[C@H](C(=O)N[C@@H](CCC(=O)O)C(=O)N[C@@H](CCCCN)C(=O)N[C@H](C(=O)NCC(=O)N[C@@H](CCC(N)=O)C(=O)O)C(C)C)[C@@H](C)CC)[C@@H](C)O)[C@@H](C)O)C(C)C)C(C)C`, the values for the LD in the experiment on Pseudomonas aeruginosa [13], in the experiment with Escherichia coli [14] and in the experiment with Staphylococcus aureus [15] were 5 µM, 1 µM and 5 µM, respectively.
In the case of `CC[C@H](C)[C@H](NC(=O)[C@H](CCCCN)NC(=O)[C@H](CCCCN)NC(=O)[C@H](Cc1ccccc1)NC(=O)[C@H](CC(C)C)NC(=O)[C@H](CCCCN)NC(=O)[C@H](Cc1c[nH]c2ccccc12)NC(=O)[C@@H](N)CCCCN)C(=O)N[C@@H](CCC(=O)O)C(=O)N[C@@H](CCCCN)C(=O)N[C@H](C(=O)NCC(=O)N[C@@H](CCC(N)=O)C(=O)NCC(=O)N[C@@H](C(=O)NCC(=O)N[C@@H](C)C(=O)N[C@H](C(=O)N[C@@H](CC(C)C)C(=O)N[C@@H](CCCCN)C(=O)N[C@H](C(=O)N[C@@H](CC(C)C)C(=O)N[C@H](C(=O)N[C@H](C(=O)NCC(=O)N[C@@H](CC(C)C)C(=O)O)[C@@H](C)O)[C@@H](C)O)C(C)C)C(C)C)[C@@H](C)CC)C(C)C`, the LD in the experiment with Pseudomonas aeruginosa [13] was 1 µM; with Escherichia coli [14] it was 0.5 µM; in the experiment with Staphylococcus aureus [15] it was 2 µM.
For H-RRRRRRRRRRGIGKFLHSAKKFGKAFVGEIMNS-OH, the MIC worked out at 3.12 µg/mL in the experiment on Escherichia coli [4], 25 µg/mL with Staphylococcus aureus [5] and 6.25 µg/mL with Pseudomonas aeruginosa [6].
For the molecule H-GIGKFLHAAKKFAKAFVAEIMNS-NH2, the MIC stood at 25 µg/mL in the experiment on Pseudomonas aeruginosa [10], 2.5 µg/mL with Escherichia coli [11] and 10 µg/mL in the experiment with Staphylococcus aureus [12].
In the case of `CC[C@H](C)[C@H](NC(=O)CN)C(=O)NCC(=O)N[C@@H](C)C(=O)N[C@H](C(=O)N[C@@H](CC(C)C)C(=O)N[C@@H](CCCCN)C(=O)N[C@H](C(=O)N[C@@H](CC(C)C)C(=O)N[C@H](C(=O)N[C@H](C(=O)NCC(=O)N[C@@H](CC(C)C)C(=O)N1CCC[C@H]1C(=O)N[C@@H](C)C(=O)N[C@@H](CC(C)C)C(=O)N[C@H](C(=O)N[C@@H](CO)C(=O)N[C@@H](Cc1c[nH]c2ccccc12)C(=O)N[C@H](C(=O)N[C@@H](CCCCN)C(=O)N[C@@H](CCCNC(=N)N)C(=O)N[C@@H](CCCCN)C(=O)N[C@@H](CCCNC(=N)N)C(=O)N[C@@H](CCC(N)=O)C(=O)N[C@@H](CCC(N)=O)C(N)=O)[C@@H](C)CC)[C@@H](C)CC)[C@@H](C)O)[C@@H](C)O)C(C)C)C(C)C` [MELITTIN], the figures for the LD in the experiment with Pseudomonas aeruginosa [13], with Escherichia coli [14] and with Staphylococcus aureus [15] were 3 µM, 0.8 µM and 0.2 µM, respectively.
With H-KKKKKKKKKKGIGKFLHSAKKFGKAFVGEIMNS-OH, the MIC was 6.25 µg/mL in the experiment on Escherichia coli [4], 12.5 µg/mL in the experiment with Staphylococcus aureus [5] and 6.25 µg/mL in the experiment on Pseudomonas aeruginosa [6].
As to `CC[C@H](C)[C@H](NC(=O)CN)C(=O)NCC(=O)N[C@@H](CCCCN)C(=O)N[C@@H](Cc1ccccc1)C(=O)N[C@@H](CC(C)C)C(=O)N[C@@H](Cc1c[nH]cn1)C(=O)N[C@@H](CO)C(=O)N[C@H](C)C(=O)N[C@@H](CCCCN)C(=O)N[C@@H](CCCCN)C(=O)N[C@@H](Cc1ccccc1)C(=O)N[C@H](C)C(=O)N[C@@H](CCCCN)C(=O)N[C@@H](C)C(=O)N[C@@H](Cc1ccccc1)C(=O)N[C@H](C(=O)N[C@H](C)C(=O)N[C@@H](CCC(=O)O)C(=O)N[C@H](C(=O)N[C@@H](CCSC)C(=O)N[C@@H](CC(N)=O)C(=O)N[C@@H](CO)C(N)=O)[C@@H](C)CC)C(C)C` (H-GIGKFLHS[dA]KKF[dA]KAFV[dA]EIMNS-NH2), the MIC in the experiment with Pseudomonas aeruginosa [10], in the experiment on Escherichia coli [11] and in the experiment on Staphylococcus aureus [12] was over 100 µg/mL throughout.

A word on the MIC: it is the lowest concentration that inhibits growth of the organism.
